Results as given in ChEMBL document CHEMBL4184271, “Design, synthesis, anti-inflammatory activity and molecular docking of potential novel antipyrine and pyrazolone analogs as cyclooxygenase enzyme (COX) inhibitors” (Bioorg Med Chem Lett, 2018).

Legend:
Rattus norvegicus = assay: Anti-inflammatory activity in Sprague-Dawley rat assessed as inhibition of carrageenan-induced edema in hind paw administered ip measured after 4 to 6 hrs relative to control; assay type: functional
[1] = biological target: T1, Prostaglandin G/H synthase 1 (Ovis aries, UniProt P05979); assay: Inhibition of ovine COX1 using arachidonic acid as substrate preincubated for 10 mins followed by substrate addition measured after 5 mins by ELISA
T1 sequence (P05979 whole entry): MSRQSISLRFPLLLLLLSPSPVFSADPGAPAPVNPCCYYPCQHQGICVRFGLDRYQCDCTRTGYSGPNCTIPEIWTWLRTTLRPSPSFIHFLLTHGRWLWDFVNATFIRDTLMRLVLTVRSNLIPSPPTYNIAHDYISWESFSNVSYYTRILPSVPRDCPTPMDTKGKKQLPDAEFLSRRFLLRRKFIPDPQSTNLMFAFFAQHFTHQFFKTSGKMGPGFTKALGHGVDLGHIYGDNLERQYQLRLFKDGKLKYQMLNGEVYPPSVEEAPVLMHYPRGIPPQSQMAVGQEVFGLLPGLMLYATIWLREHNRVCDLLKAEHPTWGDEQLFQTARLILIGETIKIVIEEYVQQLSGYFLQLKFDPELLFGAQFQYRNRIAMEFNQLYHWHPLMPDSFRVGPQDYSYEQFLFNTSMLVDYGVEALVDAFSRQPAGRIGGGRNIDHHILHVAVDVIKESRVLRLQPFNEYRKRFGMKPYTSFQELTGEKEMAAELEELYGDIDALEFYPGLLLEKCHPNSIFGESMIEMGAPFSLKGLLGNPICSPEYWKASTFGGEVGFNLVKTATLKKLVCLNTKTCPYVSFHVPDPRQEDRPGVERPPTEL

Ovis aries = organism: Ovis aries; assay: Selectivity ratio of compound effect for inhibition of ovine COX2 to compound effect for inhibition of ovine COX1
[2] = biological target: T2, Prostaglandin G/H synthase 1 (Ovis aries) (UniProt P05979); assay: Inhibition of ovine COX1 at 5 uM using arachidonic acid as substrate preincubated for 10 mins followed by substrate addition measured after 5 mins by ELISA relative to control
T2 sequence (whole entry): T1 sequence (P05979 whole entry)

| SMILES | IC50 [1] | Selectivity ratio (Ovis aries) | inhibition [2] | inhibition (INH) (Rattus norvegicus) |
| --- | --- | --- | --- | --- |
| CC1=NN(c2ccccc2)C(=O)/C1=C\c1c(C)n(C)n(-c2ccccc2)c1=O | > 5000 nM | 0.87 | 87% | 49.1% |
| CC1=NN(c2ccccc2)C(=O)/C1=C\c1ccc2c(c1)OCO2 | 22200 nM | 0.67 | 25% | 20.3% |
| CC1=NN(c2ccccc2)C(=O)C1C(c1c(C)n(C)n(-c2ccccc2)c1=O)N1CCCCC1 (stereo not given) | 1330 nM | 0.95 | 78% | 40.5% |
| Cc1ccc(-c2cc(C(F)(F)F)nn2-c2ccc(S(N)(=O)=O)cc2)cc1 [CELECOXIB] |  |  |  | 89% |
| Cc1c(CN2CCC(CCCC3CCN(Cc4c(C)n(C)n(-c5ccccc5)c4=O)CC3)CC2)c(=O)n(-c2ccccc2)n1C | 1230 nM | 0.78 | 88.5% | 85.4% |
| CC1=NN(c2ccccc2)C(=O)C1C(c1ccc2c(c1)OCO2)N1CCN(C(c2ccc3c(c2)OCO3)C2C(=O)N(c3ccccc3)N=C2C)CC1 (stereo not given) | > 5000 nM | 1.2 | 42.9% | 21.1% |
| CC1=NN(c2ccccc2)C(=O)C1C(Nc1c(C)n(C)n(-c2ccccc2)c1=O)c1ccc2c(c1)OCO2 (stereo not given) | 2520 nM | 0.82 | 84.2% | 48.3% |
| Cc1c(CN2CCN(CCO)CC2)c(=O)n(-c2ccccc2)n1C | > 5000 nM | 1.05 | 73.4% | 48.2% |

Second part, led by results:

| IC50 [1] | Selectivity ratio (Ovis aries) | inhibition [2] | SMILES | inhibition (INH) (Rattus norvegicus) |
| --- | --- | --- | --- | --- |
| > 5000 nM | 1.01 | 58.8% | CC1=NN(c2ccccc2)C(=O)C1C(Nc1c(C)n(C)n(-c2ccccc2)c1=O)c1c(C)n(C)n(-c2ccccc2)c1=O (stereo not given) | 39.4% |
| 1460 nM | 0.48 | 81.3% | Cc1c(C(CCCC(c2c(C)n(C)n(-c3ccccc3)c2=O)c2c(C)n(C)n(-c3ccccc3)c2=O)c2c(C)n(-c3ccccc3)n(C)c2=O)c(=O)n(-c2ccccc2)n1C (stereo not given) | 75% |
| > 5000 nM | 0.79 | 69.1% | Cc1nn(-c2ccccc2)c(O)c1C(c1c(-c2ccccc2)[nH]c2ccccc12)c1c(C)c(=O)n(-c2ccccc2)n1C (stereo not given) | 35.9% |
| 1160 nM | 0.87 | 87.4% | CC1=NN(c2ccccc2)C(=O)C1C(c1c(C)c(=O)n(-c2ccccc2)n1C)N1CCN(C(c2c(C)c(=O)n(-c3ccccc3)n2C)C2C(=O)N(c3ccccc3)N=C2C)CC1 (stereo not given) | 49.5% |
